Test [1] deals with [Ca^2+]i in Jurkat T cells. Kind of test: receptor-stimulated Ca2+ influx in Jurkat T cells (anti-CD3 mAb OKT3). Type of test: cell-based, human. On the set-up: key to T cell [Ca^2+]i (pre) / T cell [Ca^2+]i: NE: no effect; ND: not determined. The note with it: 10 or 30 μM drug; for T cell [Ca^2+]i: effect the same post- and pre- T cell receptor stimulation; for T cell [Ca^2+]i (post): drug added post T cell receptor stimulation; for T cell [Ca^2+]i (pre): drug added pre T cell receptor stimulation. The method, then:
Initially, all drugs are screened using Jurkat T cells incubated with indo-1/AM as outlined below. In the event that there is an effect of the drug on the maximum [Ca^2+]i reached following treatment of the cells with the anti-CD3 mAb […], the drug is evaluated for any effects on the spectral characteristics of indo-1 as outlined in Haverstick and Gray, Mol. Biol. Cell (1993) 4:173. If there is an effect of the drug on the spectral characteristics of indo-1 , the drug is further examined for spectral effects on the combination of fura-red and fluo-3. If there is no effect of the drug on the fura-red/fluo-3 combination, the drug is examined for effects on the maximum [Ca^2+]i reached following OKT3 treatment of cells incubated with 5 μM fura-red and […] as outlined below.
Jurkat cells are incubated in RPMI-1640 plus 5% fbs in the presence of the acetoxymethyl ester of either indo-1 (1 μM) or the combination of fura-red (5 μM) with fluo-3 (1 μM) for one hour at 37° C. Cells are washed three times in buffer A [[…] 4-(2-hydroxyethyl)-1-piperazine ethanesulfonic acid (HEPES), pH 7.4, 3 MM KCl, 1 mM MgCl2, 1 mM CaCl2, 140 mM NaCl, 0.1% glucose] containing 1% fbs and suspended to a final concentration of 1×10^6/ml. Cells are then placed in the 37° C. jacketed cell holder of the SLM 8000C. Antigen receptor engagement is mimicked by the addition of the anti-CD3 monoclonal antibody OKT3 (Gray et al, J. Exp. Med. (1988) 167:1963; Gray et al, J. Immunol. 142:1631). The effect of drug added prior to receptor stimulation or at the plateau phase of Ca^2+ entry is determined as follows:
Prior drug: 10 or 30 μM drug @ 30 seconds, 1 μg/ml OKT3 at 90 seconds
Post drug: 1 μg/ml OKT3 at 30 second, 10 or 30 μM drug @ 120 seconds

The test system of test [2] is MDA-468 human breast cancer cells. Kind of test: MDA-468 cell proliferation, tetrazolium dye. The format is cell-based. Details: key to MDA PROLIF: NE: no effect; ND: not determined. The note with it: human breast cancer cell proliferation, 48 hours. The method, then:
(§1) The effect of various drugs on the proliferation of Jurkat T cells, MDA-468 human breast cancer cells and PC3 human prostate cancer cells was determined by incubating the cells with the indicated concentrations of drug for 48 hours. The number of viable cells remaining at the end of the incubation period was evaluated using the procedure outlined in Example 4.
(§2) Cells are plated in triplicate in a 96-well flat-bottomed plate (Jurkat: 5e4 cells/well in RPMI-1640 plus 5% fbs; MDA468: 2.5e4 per well in DMEM plus 5% fbs and 11 μg/ml insulin) in the absence (control) or presence of drug at 3, 10, 30, and 100 μM. An additional control of 100 μM drug in RPMI-1640 plus 5% fbs or DMEM plus 5% fbs and 11 μg/Ml insulin with no cells is included with each run to control for possible drug interactions with the dye. The plate is then placed in a 5% CO2 37° C. incubator for 44 to 48 hours. 20 μl of dye solution containing a tetrazolium dye (3-(4,5-dimethylthiazol-2-yl)-5-(3-carboxymethoxyphenyl)-2-(4-sulfophenyl)-2H-tetrazolium, Owen's reagent) plus coupling reagent (phenazine methosulfate) is added to each well, the plate is returned to the incubator, and the absorbance at 490 nm is read using an ELISA plate reader 3 to 4 h (Jurkat cells) or 2 to 3 h (MDA-468 cells) later. All data are presented as percent of control (no drug addition). With this protocol, it is possible to determine the effect of 5 drugs at 4 concentrations in a single 96-well plate as outlined below: […]

For a further test, the system named is Jurkat T cells. Kind of test: Jurkat cell proliferation, tetrazolium dye. The note with it: 48 hours. On the set-up: key to T cell PROLIF: NE: no effect; ND: not determined. The format is cell-based, human. On the procedure: as §1, §2
The subject of test [3] is [Ca^2+]i in MDA-468 cells. The experiment in a line: EGF receptor-stimulated Ca2+ influx in MDA-468 cells. The format is cell-based, human. On the set-up: key: NE: no effect; ND: not determined. The note with it: for MDA [CA^2+]i: effect the same post- and pre- EGF receptor stimulation. On the procedure:
MDA468 cells are incubated with either indo-1 or the combination of fura-red/fluo-3 for 1 hour while still adherent in the maintenance flask in DMEM plus 5% fbs and 1 μg/ml insulin. Cells are removed by gentle scraping and washed three times in buffer A containing 1% charcoal stripped fbs (Nelson et al, Br. J. Cancer (1991) 63:933). The cells are then suspended to a final concentration of 1e6/ml and used as above in the SLM. For the human breast cancer cells, Ca^2+ entry is stimulated by the addition of 25 ng/ml EGF, rather than the antibody used above.

Each structure is given as a SMILES string.

On to `c1ccc2nc(N3CCNCC3)ccc2c1` [quipazine], for which the “T cell [Ca^2+]i” value in test [1] is listed as “NE”. Also, the “MDA PROLIF” value in test [2] is given as “NE”.
For `COc1cc(CCO)ccc1O` [3-methoxy, 4-hydroxyphenylethanol], the “T cell [Ca^2+]i” value in test [1] is “NE”. Moreover, the “MDA PROLIF” value in test [2] is reported as “NE”.
Turning to `COC(=O)C1=C(C)NC(C)=C(C(=O)OC(C)C)C1c1cccc2nonc12` (stereo not shown) [isradipine], the “T cell PROLIF” value with Jurkat T cells is “NE”. For the same compound, the “T cell [Ca^2+]i” value in test [1] is “↓”. In addition, in test [2], the “MDA PROLIF” value was “NE”.
`Cc1nc(C)c(C)nc1C` [tetranethylpyrazine]: in test [1], the “T cell [Ca^2+]i” value is on record as “NE”. Further, the “MDA PROLIF” value in test [2] was “NE”.
Regarding `CCN(CC)C(=O)N1CCN(C)CC1` [diethylcarbamazine], the “MDA [CA^2+]i” value in test [3] is “NE”. Also, the “T cell PROLIF” value in the test on Jurkat T cells is recorded as “NE”. For the same compound, in test [1], the “T cell [Ca^2+]i” value is reported as “NE”. Further, in test [2], the “MDA PROLIF” value is on record as “NE”.
As to `OCCOCCN1CCN(C(c2ccccc2)c2ccc(Cl)cc2)CC1` (stereo not shown) [hydroxyzine], the “T cell PROLIF” value in the test on Jurkat T cells is on record as “NE”. Besides, the “T cell [Ca^2+]i” value in test [1] is reported as “NE”. Moreover, the “MDA PROLIF” value in test [2] was “NE”.
Regarding `Nc1cc(-c2ccncc2)c[nH]c1=O` [amrinone], in test [1], the “T cell [Ca^2+]i” value is “NE”. For the same compound, in test [2], the “MDA PROLIF” value is reported as “NE”.
For the compound `CCn1cc(C(=O)O)c(=O)c2cnc(N3CCNCC3)nc21` [pipenidic acid], the “T cell PROLIF” value in the test with Jurkat T cells is reported as “NE”. For the same compound, in test [1], the “T cell [Ca^2+]i” value is listed as “NE”. The “MDA PROLIF” value in test [2] is given as “NE”.
Regarding `CN1CCN(C(c2ccccc2)c2ccccc2)CC1` [cyclizine], the “T cell [Ca^2+]i” value in test [1] was “NE”. Moreover, the “MDA PROLIF” value in test [2] was “NE”.
In the case of `C(=C\c1ccccc1)/CN1CCN(C(c2ccccc2)c2ccccc2)CC1` [cinnarizine], in test [3], the “MDA [CA^2+]i” value was “NE”. Also, the “T cell PROLIF” value in the test on Jurkat T cells is “↓”. Further, the “T cell [Ca^2+]i” value in test [1] was “↓”. The “MDA PROLIF” value in test [2] is on record as “NE”.
With `O=c1n(CCCN2CCN(c3cccc(Cl)c3)CC2)nc2ccccn12` [trazodone], the “T cell PROLIF” value in the test on Jurkat T cells is given as “NE”. For the same compound, the “T cell [Ca^2+]i” value in test [1] is given as “NE”. The “MDA PROLIF” value in test [2] was “NE”.
With `C1CCC(C(CC2CCCCN2)C2CCCCC2)CC1` (stereo not shown) [perhexiline], the “MDA [CA^2+]i” value in test [3] was “↑”. Further, the “T cell PROLIF” value in the test on Jurkat T cells is “↓”. In test [1], the “T cell [Ca^2+]i (post)” value is recorded as “↑ (post)” and the “T cell [Ca^2+]i (pre)” value is reported as “↓(pre)”. In addition, in test [2], the “MDA PROLIF” value is “↓”.
As for `Cc1cccc(CN2CCN(C(c3ccccc3)c3ccc(Cl)cc3)CC2)c1` (stereo not shown) [meclizine], the “T cell PROLIF” value in the test on Jurkat T cells is reported as “(↓)”. Besides, in test [1], the “T cell [Ca^2+]i (post)” value is listed as “↓ (post)” and the “T cell [Ca^2+]i (pre)” value was “NE (pre)”. Further, the “MDA PROLIF” value in test [2] was “NE”.
As to `O=C1CN(/N=C/c2ccc(-c3ccc([N+](=O)[O-])cc3)o2)C(=O)N1` [datrolene], in test [3], the “MDA [CA^2+]i” value was “NE”. In test [1], the “T cell [Ca^2+]i” value is “NE”. The “MDA PROLIF” value in test [2] is listed as “NE”.
In the case of `COc1cc(C(O)C(O)CO)ccc1O` (stereo not shown) [3-methoxy, 4-hydroxyphenylglycerol], the “T cell [Ca^2+]i” value in test [1] is recorded as “NE”. Besides, in test [2], the “MDA PROLIF” value was “NE”.
Regarding `CC(NCCC(c1ccccc1)c1ccccc1)c1ccccc1` (stereo not shown) [fendiline], the “MDA [CA^2+]i” value in test [3] was “↑”. For the same compound, the “T cell PROLIF” value with Jurkat T cells is reported as “↓”. Further, in test [1], the “T cell [Ca^2+]i” value was “↓”. For the same compound, the “MDA PROLIF” value in test [2] is given as “↓”.
Turning to `CN1CCN(C(c2ccccc2)c2ccc(Cl)cc2)CC1` (stereo not shown) [chlorcyclizine], the “MDA [CA^2+]i” value in test [3] is reported as “↑”. For the same compound, the “T cell [Ca^2+]i” value in test [1] is given as “NE”. In addition, the “MDA PROLIF” value in test [2] is on record as “↓”.
Regarding `COc1cc(/C=C/C(=O)CC(=O)/C=C/c2ccc(O)c(OC)c2)ccc1O` [curcumin], in the test on Jurkat T cells, the “T cell PROLIF” value is given as “↓”. Further, in test [2], the “MDA PROLIF” value was “NE”.
In the case of `OCCN1CCN(CCCN2c3ccccc3Sc3ccc(C(F)(F)F)cc32)CC1` [fluphenazine], in test [3], the “MDA [CA^2+]i” value is “↓”. Also, the “T cell PROLIF” value in the test on Jurkat T cells is given as “↓”. In test [1], the “T cell [Ca^2+]i” value is listed as “↓”. The “MDA PROLIF” value in test [2] is listed as “↓”.
In the case of `COC(=O)C1=C(C)NC(C)=C(C(=O)OCCN(C)Cc2ccccc2)C1c1cccc([N+](=O)[O-])c1` (stereo not shown) [nicardipine], the “MDA [CA^2+]i” value in test [3] is on record as “NE”.
Regarding `O=C(O)c1cccnc1Nc1cccc(C(F)(F)F)c1` [niflumic acid], the “T cell PROLIF” value in the test on Jurkat T cells is on record as “(↓)”. Besides, in test [1], the “T cell [Ca^2+]i (post)” value is listed as “↓ (post)” and the “T cell [Ca^2+]i (pre)” value is reported as “NE (pre)”. Besides, the “MDA PROLIF” value in test [2] was “NE”.
Turning to `COc1ccc2cc1Oc1ccc(cc1)C[C@H]1c3cc(c(OC)cc3CCN1C)Oc1c(OC)c(OC)cc3c1[C@H](C2)N(C)CC3` [tetrandrine, 6,6′,7,12-tetramethoxy-2,2′-dimethyl-baman], the “MDA [CA^2+]i (pre)” value in test [3] (drug added pre EGF receptor stimulation) is “NE (pre)”. Also, in test [1], the “T cell [Ca^2+]i (pre)” value is reported as “NE (pre)”.
For the compound `Fc1ccc(C(c2ccc(F)cc2)N2CCN(C/C=C/c3ccccc3)CC2)cc1` [flunarizine], the “MDA [CA^2+]i” value in test [3] is listed as “NE”. In the test with Jurkat T cells, the “T cell PROLIF” value is “↓”. Further, in test [1], the “T cell [Ca^2+]i” value was “↓”. In addition, in test [2], the “MDA PROLIF” value is “NE”.
As to `CN1CCN2c3ccccc3Cc3ccccc3C2C1` (stereo not shown) [mianserin], the “T cell PROLIF” value in the test on Jurkat T cells was “NE”. Besides, in test [1], the “T cell [Ca^2+]i” value is “NE”. Also, the “MDA PROLIF” value in test [2] is given as “NE”.
As to `Cc1cccc(C)c1NC(=O)CN1CCN(CCCC(c2ccc(F)cc2)c2ccc(F)cc2)CC1` [lidoflazine], in the test with Jurkat T cells, the “T cell PROLIF” value was “↓”. In addition, the “T cell [Ca^2+]i” value in test [1] was “↓”. Besides, the “MDA PROLIF” value in test [2] is “(↓)”.
Take `CC(NC(C)(C)C)C(=O)c1cccc(Cl)c1` (stereo not shown) [bupropion]: in the test on Jurkat T cells, the “T cell PROLIF” value is recorded as “NE”. For the same compound, the “T cell [Ca^2+]i” value in test [1] was “NE”. Besides, in test [2], the “MDA PROLIF” value is reported as “NE”.
With `CC(C)COCC(CN(Cc1ccccc1)c1ccccc1)N1CCCC1` (stereo not shown) [bepridil], in test [3], the “MDA [CA^2+]i” value was “↑”. The “T cell PROLIF” value with Jurkat T cells was “↓”. Moreover, in test [1], the “T cell [Ca^2+]i (post)” value is “↓ (post)” and the “T cell [Ca^2+]i (pre)” value is on record as “NE (pre)”. For the same compound, the “MDA PROLIF” value in test [2] was “↓”.

These data come from US6413967B1, “Inhibition of novel calcium entry pathway in electrically non-excitable cells acting as an anti-proliferative therapy” (The University of Virginia Patents Foundation, priority 1995, dated 2002).
